According to US10407488B2, “Therapy for treatment or prevention of conditions associated with bleeding or hypocoagulation” (THE REGENTS OF THE UNIVERSITY OF CALIFORNIA, priority 2013, dated 2019):

Assays:
[1] = system: thrombin generation in FVIII-deficient plasma; assay: Thrombin generation (ETP) assay in FVIII-deficient plasma; type: biochemical, human; conditions: increasing concentrations of ^superFVa alone
Method: Endogenous thrombin potential (ETP) assays were performed as described (19). Briefly, plasma samples supplemented with CTI, TF, PCPS vesicles and coagulation factors were preincubated with the plasma at 37° C. Thrombin generation was initiated by addition of CaCl2 and Z-Gly-Gly-Arg-AMC in HBS/0.5% BSA. The final reaction mixture contained, 50% plasma, 0.2 pM TF, […] PCPS vesicles, 0.725 μM CTI, 0.5 mM Z-GGR-AMC and 7.6 mM CaCl2 in a total volume of 100 μL. In some experiments, 1.25 μg/ml anti-FVIII antibody was added to the plasma and ETP was determined after 1 hour of preincubation. Fluorescence was measured at excitation/emission wavelengths of […] using Gemini EM fluorescent plate reader (Molecular Devices). Fluorescence time course data were converted to nM thrombin as described (20). ETP, defined as the area under the curve (AUC) and the peak height were determined using Origin or GraphPad Prism software.

[2] = system: thrombin generation in plasma of patients with congenital FVIII-deficiency and inhibitors; assay: Thrombin generation in plasma of patients with congenital FVIII-deficiency and high titer inhibitors, spiked in vitro; type: biochemical, human; conditions: factor alone; five patient samples, BU-titer 41-280
Description: Normal pooled human plasma and plasma from human FVIII-deficient patients with and without inhibitors (titer specified in Bethesda Units (BU)) was purchased from George King Bio-Medical (Overland Park, Kans., USA). In addition, plasma and clinical information was obtained from two patients with severe FVIII-deficiency (<1% intrinsic FVIII-activity levels) and inhibitors (titers determined in BU by the clinical laboratory using the Nijmegen assay (17) regularly visiting the Hemophilia Treatment Center at the University of California, San Diego (UCSD) after informed consent was obtained. Patient confidentiality safeguards, sample and data acquisition methods were approved by the UCSD Institutional Review Board. Blood was drawn into 3.8% sodium citrate (pH 5.5) at a 9:1 blood/anticoagulant volume ratio, and processed immediately. […]
Endogenous thrombin potential (ETP) assays were performed as described (19). […] In some experiments, 1.25 μg/ml anti-FVIII antibody was added to the plasma and ETP was determined after 1 hour of preincubation. Fluorescence was measured at excitation/emission wavelengths of […] using Gemini EM fluorescent plate reader (Molecular Devices). Fluorescence time course data were converted to nM thrombin as described (20). ETP, defined as the area under the curve (AUC) and the peak height were determined using Origin or GraphPad Prism software.

Balb/c mice = assay: Liver laceration bleeding assay, APC-induced bleeding in Balb/c mice; type: in vivo
Method: Mice were anesthetized with Isofluorane 3% and the abdomen was opened by substernal blunt midline dissection. […] Immediately after laceration mice were positioned prone into a small weighing dish (8 cm diameter) filled with saline (37° C., 13 mL), transferred into the anesthesia chamber which rested on a heating pad (37° C.). Anesthesia was maintained at 3% Isofluorane and dishes were changed after 10 minutes to collect blood for the first and second 10 minutes separately. Blood loss was determined as described for the tail clip model. Groups of Balb/c mice were injected intravenously (tail vein) with equal volumes (200 μL) of ^superFVa or saline 2 minutes prior to intravenous injection of plasma-derived human APC, followed immediately by liver laceration. All agents were diluted in sterile sodium chloride 0.9% for injection (Hospira Inc).

[3] = system: clot lysis time in NHP with anti-FVIII antibody; assay: Clot lysis assay (t-PA mediated) in normal human plasma with anti-FVIII antibody; type: biochemical
Method: FIGS. 28A and 28B show the synergistic effect of ^superFVa in combination with rhFVIIa on clot stabilization in NHP spiked with anti-FVIII antibody. Clot lysis time was determined by t-PA mediated fibrinolysis following thrombin induced fibrin clot formation in NHP spiked with anti-FVIII-antibody. (A) Increasing concentrations of rhFVIIa were added in the absence (open circle) or presence (open square) of ^superFVa (0.37 nM). (B) Increasing concentrations of ^superFVa were added in the absence (open circle) or presence (open square) of rhFVIIa (0.37 nM). Clot lysis time of NHP without inhibitors in the absence (open upward triangle) or presence of CPI (open downward triangle) represent control experiments. Normal human plasma; NHP. Carboxypeptidase inhibitor from potato tubers; CPI. Error bars represent standard error of the mean (n≥3).
Clot stability was studied as t-PA induced clot lysis time in NHP with anti-FVIII antibodies (GMA8015) at 10 μg/mL, as well as in FVIIIdP. The concentration of antibody was based on maximal shortening of the clot lysis time from approximately 105 min to 75 min following antibody titration (data not shown). The clot lysis time in the presence of antibody (10 μg/mL) was similar to the clot lysis time in the presence of CPI, which was used as control since it causes suppression of Thrombin Activatable Fibrinolysis Inhibitor (TAFI) activation. […]

[4] = system: thrombin generation in FVIII-deficient plasma; conditions: von Drygalski et al. JTH 2014; cited from earlier work

## ^superFVa: engineered APC-resistant FVa variant (SEQ ID NO:4): R306Q, R506Q, R679Q, Cys609-Cys1691 disulfide, S2183A, B-domain deleted
[1]
  increase in ETP: ~2.5 fold
  increase in peak height: ~2.5 fold
[2]
  effect on ETP and peak height: increased ETP and peak height in all five patient samples
Balb/c mice; ^superFVa (25 U/mL) prior to APC 1.25 mg/kg, 20 minutes after liver laceration
  mean blood loss: 29 µL/g
Balb/c mice; ^superFVa prior to APC, liver laceration
  bleeding-induced mortality: abolished bleeding-induced mortality
Balb/c mice; ^superFVa prior to wt APC, liver laceration
  bleeding during the 2nd 10 min phase: fully prevented bleeding
[3]; factor alone, NHP with anti-FVIII antibody
  concentration at which clot lysis times returned to normal: 3.33 nM
[3]; factor individually, 10 μg/ml anti-FVIII antibody
  concentration showing enhancement of clot lysis time: 2 to 5 µg/mL
[4]
  increase of ETP in human FVIII-deficient plasma: approximately 2 fold
